According to patent US10654834B2 (Venenum Biodesign, LLC, priority 2016, dated 2020):

How the values were obtained:
Assay type in all cases: cell-based
human TGR5 receptor = target: T1, human TGR5 receptor (Homo sapiens, UniProt Q8TDU6); assay: Human TGR5 cAMP production assay (hTGR5-CHO cells, DiscoveRx cAMP XS+ kit); conditions: luminescent cAMP assay, read-out: Human TGR5 Lum. cAMP Activity (EC50)
T1 construct: host or cells: CHO-K1 (hTGR5-CHO)
T1 sequence (Q8TDU6 1-330): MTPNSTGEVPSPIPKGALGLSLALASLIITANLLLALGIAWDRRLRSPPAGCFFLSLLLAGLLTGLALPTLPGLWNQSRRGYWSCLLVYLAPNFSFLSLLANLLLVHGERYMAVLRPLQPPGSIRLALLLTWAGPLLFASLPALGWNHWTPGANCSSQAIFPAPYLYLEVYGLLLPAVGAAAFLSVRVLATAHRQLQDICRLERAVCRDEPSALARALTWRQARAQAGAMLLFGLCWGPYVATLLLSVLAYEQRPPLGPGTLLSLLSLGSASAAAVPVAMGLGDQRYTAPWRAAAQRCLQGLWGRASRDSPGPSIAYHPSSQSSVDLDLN
Method in brief: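 CHO-K1 cells stably expressing hTGR5, in PBS with IBMX and cAMP antibody, treated with half-log compound dilutions for 1 h at room temperature. cAMP measured by enzyme-fragment complementation luminescence after overnight detection; EC50 values reported.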

mouse TGR5 receptor [1] = target: T2, mouse TGR5 receptor (Mus musculus, UniProt Q80SS6); assay: Mouse TGR5 luminescent cAMP production assay (HEK293-EBNA cells, DiscoveRx cAMP XS+ kit); conditions: HEK293-EBNA cells overexpressing mouse TGR5, luminescent cAMP assay; read-out: Mouse TGR5 Lum. cAMP Activity (EC50)
T2 construct: host or cells: HEK293-EBNA (293 c18, ATCC CRL10852)
T2 sequence (Q80SS6 1-329): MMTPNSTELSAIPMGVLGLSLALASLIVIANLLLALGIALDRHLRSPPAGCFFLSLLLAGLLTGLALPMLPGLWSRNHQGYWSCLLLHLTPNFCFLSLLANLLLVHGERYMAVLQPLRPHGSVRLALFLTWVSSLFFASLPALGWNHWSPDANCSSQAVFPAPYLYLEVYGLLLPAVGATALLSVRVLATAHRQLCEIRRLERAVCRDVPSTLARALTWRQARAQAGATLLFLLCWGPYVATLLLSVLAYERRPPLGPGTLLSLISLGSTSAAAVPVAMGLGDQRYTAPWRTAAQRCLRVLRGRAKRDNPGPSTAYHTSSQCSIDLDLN
Method in brief: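 HEK293-EBNA cells stably expressing mouse TGR5, resuspended in serum-free DMEM with 500 μM IBMX, were premixed 20 min with cAMP antibody, then exposed to half-log compound dilutions for 1 h at room temperature. cAMP was read by luminescent enzyme-fragment complementation (cAMP XS+) after overnight incubation; EC50 derived.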

mouse TGR5 receptor [2] = target: T2, mouse TGR5 receptor; assay: Mouse TGR5 HTRF cAMP production assay (HEK293-EBNA cells, Cisbio cAMP HiRange kit); conditions: HEK293-EBNA cells overexpressing mouse TGR5, HTRF cAMP assay
Method in brief: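 HEK293-EBNA cells stably expressing mouse TGR5 (episomal vector) were suspended in serum-free DMEM with 500 μM IBMX and exposed to 12-point half-log compound dilutions for 1 h at room temperature. cAMP was detected by HTRF (d2-cAMP/anti-cAMP cryptate, 1 h, room temperature), giving EC50 from duplicates.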

EC50 (human TGR5 receptor)	EC50 (mouse TGR5 receptor [1])	EC50 (mouse TGR5 receptor [2])	Structure (SMILES)
100 to 999 nM	100 to 999 nM	< 100 nM	Cc1csc(-c2cc(N3CCC[C@H]3C(=O)NCCc3ccc(C#N)cc3)nc(C(F)(F)F)n2)c1 [Compound 171, (S)-N-(4-cyanophenethyl)-1-(6-(4-methylthiophen-2-yl)-2-(trifluoromethyl)pyrimidin-4-yl)pyrrolidine-2-carboxamide]
100 to 999 nM	100 to 999 nM	100 to 999 nM	N#Cc1ccc(CCNC(=O)[C@@H]2CCCN2c2cc(-c3cc4ccccc4s3)nc(C(F)(F)F)n2)cc1 [Compound 173, (S)-1-(6-(benzo[b]thiophen-2-yl)-2-(trifluoromethyl)pyrimidin-4-yl)-N-(4-cyanophenethyl)pyrrolidine-2-carboxamide]
100 to 999 nM	100 to 999 nM	100 to 999 nM	Cc1ccc(-c2cc(N3CCC[C@H]3C(=O)NCCc3ccc(C#N)cc3)nc(C(F)(F)F)n2)s1 [Compound 170, (S)-N-(4-cyanophenethyl)-1-(6-(5-methylthiophen-2-yl)-2-(trifluoromethyl)pyrimidin-4-yl)pyrrolidine-2-carboxamide]
1000 to 30000 nM	100 to 999 nM	–	N[C@@H]1CC(C(=O)NCCc2ccc(C(F)(F)F)cc2)N(c2cc(N3CCC(CO)CC3)nc(C(F)(F)F)n2)C1 (stereo partly drawn) [Compound 218, (4R)-4-amino-1-(6-(4-(hydroxymethyl)piperidin-1-yl)-2-(trifluoromethyl)pyrimidin-4-yl)-N-(4-(trifluoromethyl)phenethyl)pyrrolidine-2-carboxamide]
100 to 999 nM	100 to 999 nM	–	O=C(NCCc1ccc(C(F)(F)F)cc1)[C@@H]1CCCN(c2cc(NCCO)nc(C(F)(F)F)n2)C1 [Compound 323, (R)-1-(6-((2-hydroxyethyl)amino)-2-(trifluoromethyl)pyrimidin-4-yl)-N-(4-(trifluoromethyl)phenethyl)piperidine-3-carboxamide]
1000 to 30000 nM	100 to 999 nM	–	CC(=O)NCCNc1cc(N2CCC[C@@H](C(=O)NCCc3ccc(C(F)(F)F)cc3)C2)nc(C(F)(F)F)n1 [Compound 324, (R)-1-(6-((2-acetamidoethyl)amino)-2-(trifluoromethyl)pyrimidin-4-yl)-N-(4-(trifluoromethyl)phenethyl)piperidine-3-carboxamide]

The remaining lines, values behind:

Structure (SMILES)	EC50 (human TGR5 receptor)	EC50 (mouse TGR5 receptor [1])	EC50 (mouse TGR5 receptor [2])
N#Cc1ccc(CCNC(=O)[C@@H]2CCCN2c2cc(-c3ccco3)nc(C(F)(F)F)n2)cc1 [Compound 167, (S)-N-(4-cyanophenethyl)-1-(6-(furan-2-yl)-2-(trifluoromethyl)pyrimidin-4-yl)pyrrolidine-2-carboxamide]	1000 to 30000 nM	100 to 999 nM	–
CC(C)(C)OC(=O)NCC1CCN(c2cc(N3CCC[C@H]3C(=O)NCCc3ccc(C#N)cc3)nc(C(F)(F)F)n2)CC1 [Compound 17]	100 to 999 nM	100 to 999 nM	–
Cc1noc(C)c1-c1cc(N2CCC[C@H]2C(=O)NCCc2ccc(C#N)cc2)nc(C(F)(F)F)n1 [Compound 156, (S)-N-(4-cyanophenethyl)-1-(6-(3,5-dimethylisoxazol-4-yl)-2-(trifluoromethyl)pyrimidin-4-yl)pyrrolidine-2-carboxamide]	1000 to 30000 nM	1000 to 30000 nM	–
COCCOc1cc(N2CCC[C@H]2C(=O)NCCc2ccc(C(F)(F)F)cc2)nc(C(F)(F)F)n1 [Compound 42, (S)-1-(6-(2-methoxyethoxy)-2-(trifluoromethyl)pyrimidin-4-yl)-N-(4-(trifluoromethyl)phenethyl)pyrrolidine-2-carboxamide]	100 to 999 nM	100 to 999 nM	–
N#Cc1ccc(CCNC(=O)[C@@H]2CCCN2c2cc(-c3ccc(C(F)(F)F)cc3)nc(C(F)(F)F)n2)cc1 [Compound 147, (S)-N-(4-cyanophenethyl)-1-(2-(trifluoromethyl)-6-(4-(trifluoromethyl)phenyl)pyrimidin-4-yl)pyrrolidine-2-carboxamide]	100 to 999 nM	100 to 999 nM	–
CS(=O)(=O)Nc1cccc(-c2cc(N3CCC[C@H]3C(=O)NCCc3ccc(C#N)cc3)nc(C(F)(F)F)n2)c1 [Compound 153, (S)-N-(4-cyanophenethyl)-1-(6-(3-(methylsulfonamido)phenyl)-2-(trifluoromethyl)pyrimidin-4-yl)pyrrolidine-2-carboxamide]	1000 to 30000 nM	100 to 999 nM	–
COc1ccc(Oc2cc(N3CCC[C@H]3C(=O)NCCc3ccc(C#N)cc3)nc(C(F)(F)F)n2)cc1 [Compound 44, (S)-N-(4-cyanophenethyl)-1-(6-(4-methoxyphenoxy)-2-(trifluoromethyl)pyrimidin-4-yl)pyrrolidine-2-carboxamide]	1000 to 30000 nM	100 to 999 nM	–
O=C(NCCc1ccc(C(F)(F)F)cc1)[C@@H]1CCCN1c1cc(-c2ccccn2)nc(C(F)(F)F)n1 [Compound 163, (S)-1-(6-(pyridin-2-yl)-2-(trifluoromethyl)pyrimidin-4-yl)-N-(4-(trifluoromethyl)phenethyl)-pyrrolidine-2-carboxamide]	100 to 999 nM	1000 to 30000 nM	–
N#Cc1ccc(CCNC(=O)[C@@H]2CCCN2c2cc(-c3ccc(CN4CCOCC4)s3)nc(C(F)(F)F)n2)cc1 [Compound 168, (S)-N-(4-cyanophenethyl)-1-(6-(5-(morpholinomethyl)thiophen-2-yl)-2-(trifluoromethyl)pyrimidin-4-yl)pyrrolidine-2-carboxamide]	1000 to 30000 nM	100 to 999 nM	–
COc1ccc(-c2cc(N3CCC[C@H]3C(=O)NCCc3ccc(C#N)cc3)nc(C(F)(F)F)n2)cc1 [Compound 148, (S)-N-(4-cyanophenethyl)-1-(6-(4-methoxyphenyl)-2-(trifluoromethyl)pyrimidin-4-yl)pyrrolidine-2-carboxamide]	100 to 999 nM	< 100 nM	–
CC(=O)NCC1CCN(c2cc(N3CCC[C@H]3C(=O)NCCc3ccc(C#N)cc3)nc(C(F)(F)F)n2)CC1 [Compound 52, (S)-1-(6-(4-(acetamidomethyl)piperidin-1-yl)-2-(trifluoromethyl)pyrimidin-4-yl)-N-(4-cyanophenethyl)pyrrolidine-2-carboxamide]	100 to 999 nM	< 100 nM	–
O=C(NCCc1ccc(C(F)(F)F)cc1)[C@@H]1CCCN1c1cc(NCc2ccncc2)nc(C(F)(F)F)n1 [Compound 3]	1000 to 30000 nM	100 to 999 nM	–
CN1CCC(Oc2cc(N3CCC[C@H]3C(=O)NCCc3ccc(C#N)cc3)nc(C(F)(F)F)n2)CC1 [Compound 39, (S)—N-(4-cyanophenethyl)-1-(6-((1-methylpiperidin-4-yl)oxy)-2-(trifluoromethyl)pyrimidin-4-yl)pyrrolidine-2-carboxamide]	100 to 999 nM	< 100 nM	–
